Experimental data reported in patent US8802597B2, “Herbicidal pyrimidines” (E I du Pont de Nemours and Company, priority 2003, dated 2014).

Key:
Experiment in all cases: Test C pre/postemergence
Type in all cases: in vivo
Settings in all cases: Postemergence
[1] = tested on: bermudagrass (Cynodon dactylon)
Outline: (§1)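 Applications: preemergence onto seeded soil and postemergence onto 1- to 4-leaf seedlings, compound carried in non-phytotoxic solvent plus surfactant. Kept in greenhouse 12 to 14 days. Scored visually relative to untreated controls, 0 (no effect) to 100 (complete control).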

[2] = tested on: common ragweed (Ambrosia elatior)
Outline: as §1

[3] = tested on: woolly cupgrass (Eriochloa villosa)
Outline: as §1

[4] = tested on: johnsongrass (Sorghum halepense)
Outline: as §1

[5] = tested on: cocklebur (Xanthium strumarium)
Outline: as §1

[6] = tested on: morningglory (Ipomoea coccinea)
Outline: as §1

[7] = tested on: Surinam grass (Brachiaria decumbens)
Outline: as §1

corn (Zea mays) = tested on: corn (Zea mays)
Outline: as §1

[8] = tested on: pigweed (Amaranthus retroflexus)
Outline: as §1

kochia (Kochia scoparia) = tested on: kochia (Kochia scoparia)
Outline: as §1

[9] = 125 g ai/ha, scale 0 to 100 (0 no effect, 100 complete control)

Structure (SMILES): CCOC(=O)c1nc(C2CC2)nc(NN)c1Br [Compound 42]
- pest or weed control at 31 g/ha ([1]; Cynodon dactylon, post-emergence, 31 g ai/ha, read-out: Plant response rating (scale of 0 to 100), Bermudagrass): 0%
- pest or weed control at 62 g/ha ([1]; Cynodon dactylon, post-emergence, 62 g ai/ha, scale 0 to 100 (0 no effect, 100 complete control), read-out: Bermudagrass plant response rating): 0%
- pest or weed control at 125 g/ha ([1]; Cynodon dactylon, post-emergence, 125 g ai/ha, scale 0 to 100 (0 no effect, 100 complete control), read-out: Bermudagrass plant response rating): 0%
- pest or weed control at 250 g/ha ([1]; Cynodon dactylon, post-emergence, 250 g ai/ha, scale 0 to 100, read-out: Plant response rating, Bermudagrass): 5%
- pest or weed control at 31 g/ha ([2]; Ambrosia artemisiifolia, post-emergence, 31 g ai/ha, read-out: Plant response rating (scale of 0 to 100), Ragweed): 0%
- pest or weed control at 62 g/ha ([2]; Ambrosia artemisiifolia, post-emergence, 62 g ai/ha, scale 0 to 100 (0 no effect, 100 complete control), read-out: Ragweed plant response rating): 10%
- pest or weed control at 125 g/ha ([2]; Ambrosia artemisiifolia, post-emergence, 125 g ai/ha, scale 0 to 100 (0 no effect, 100 complete control), read-out: Ragweed plant response rating): 40%
- pest or weed control at 250 g/ha ([2]; Ambrosia artemisiifolia, post-emergence, 250 g ai/ha, scale 0 to 100, read-out: Plant response rating, Ragweed): 40%
- pest or weed control at 31 g/ha ([3]; Eriochloa villosa, post-emergence, 31 g ai/ha, read-out: Plant response rating (scale of 0 to 100), Cupgrass, Woolly): 0%
- pest or weed control at 62 g/ha ([3]; Eriochloa villosa, post-emergence, 62 g ai/ha, scale 0 to 100 (0 no effect, 100 complete control), read-out: Cupgrass, Woolly plant response rating): 0%
- pest or weed control at 125 g/ha ([3]; Eriochloa villosa, post-emergence, 125 g ai/ha, scale 0 to 100 (0 no effect, 100 complete control), read-out: Cupgrass, Woolly plant response rating): 0%
- pest or weed control at 250 g/ha ([3]; Eriochloa villosa, post-emergence, 250 g ai/ha, scale 0 to 100, read-out: Plant response rating, Cupgrass, Woolly): 5%
- pest or weed control at 31 g/ha ([4]; Sorghum halepense, post-emergence, 31 g ai/ha, read-out: Plant response rating (scale of 0 to 100), Johnsongrass): 0%
- pest or weed control at 62 g/ha ([4]; Sorghum halepense, post-emergence, 62 g ai/ha, scale 0 to 100 (0 no effect, 100 complete control), read-out: Johnsongrass plant response rating): 0%
- pest or weed control at 125 g/ha ([4]; Sorghum halepense, post-emergence, 125 g ai/ha, scale 0 to 100 (0 no effect, 100 complete control), read-out: Johnsongrass plant response rating): 0%
- pest or weed control at 250 g/ha ([4]; Sorghum halepense, post-emergence, 250 g ai/ha, scale 0 to 100, read-out: Plant response rating, Johnsongrass): 10%
- pest or weed control at 31 g/ha ([5]; Xanthium strumarium, post-emergence, 31 g ai/ha, read-out: Plant response rating (scale of 0 to 100), Cocklebur): 0%
- pest or weed control at 62 g/ha ([5]; Xanthium strumarium, post-emergence, 62 g ai/ha, scale 0 to 100 (0 no effect, 100 complete control), read-out: Cocklebur plant response rating): 0%
- pest or weed control at 125 g/ha ([5]; Xanthium strumarium, post-emergence, 125 g ai/ha, scale 0 to 100 (0 no effect, 100 complete control), read-out: Cocklebur plant response rating): 5%
- pest or weed control at 250 g/ha ([5]; Xanthium strumarium, post-emergence, 250 g ai/ha, scale 0 to 100, read-out: Plant response rating, Cocklebur): 20%
- pest or weed control at 31 g/ha ([6]; Ipomoea, post-emergence, 31 g ai/ha, read-out: Plant response rating (scale of 0 to 100), Morningglory): 0%
- pest or weed control at 62 g/ha ([6]; Ipomoea, post-emergence, 62 g ai/ha, scale 0 to 100 (0 no effect, 100 complete control), read-out: Morningglory plant response rating): 50%
- pest or weed control at 125 g/ha ([6]; Ipomoea, post-emergence, 125 g ai/ha, scale 0 to 100 (0 no effect, 100 complete control), read-out: Morningglory plant response rating): 80%
- pest or weed control at 250 g/ha ([6]; Ipomoea, post-emergence, 250 g ai/ha, scale 0 to 100, read-out: Plant response rating, Morningglory): 85%
- pest or weed control at 125 g/ha ([7]; Urochloa decumbens, post-emergence, 125 g ai/ha, scale 0 to 100 (0 no effect, 100 complete control), read-out: Surinam Grass plant response rating): 0%
- pest or weed control at 31 g/ha ([7]; Urochloa decumbens, post-emergence, 31 g ai/ha, read-out: Plant response rating (scale of 0 to 100), Surinam Grass): 0%
- pest or weed control at 62 g/ha ([7]; Urochloa decumbens, post-emergence, 62 g ai/ha, scale 0 to 100 (0 no effect, 100 complete control), read-out: Surinam Grass plant response rating): 0%
- pest or weed control at 250 g/ha ([7]; Urochloa decumbens, post-emergence, 250 g ai/ha, scale 0 to 100, read-out: Plant response rating, Surinam Grass): 0%
- Corn plant response rating (crop injury, 0 = no effect, 100 = complete kill) at 31 g/ha (corn (Zea mays); Zea mays, post-emergence, 31 g ai/ha, read-out: Plant response rating (scale of 0 to 100), Corn): 0%
- Corn plant response rating (crop injury, 0 = no effect, 100 = complete kill) at 62 g/ha (corn (Zea mays); Zea mays, post-emergence, 62 g ai/ha, scale 0 to 100 (0 no effect, 100 complete control), read-out: Corn plant response rating): 0%
- Corn plant response rating (crop injury, 0 = no effect, 100 = complete kill) at 125 g/ha (corn (Zea mays); Zea mays, post-emergence, 125 g ai/ha, scale 0 to 100 (0 no effect, 100 complete control), read-out: Corn plant response rating): 0%
- Corn plant response rating (crop injury, 0 = no effect, 100 = complete kill) at 250 g/ha (corn (Zea mays); Zea mays, post-emergence, 250 g ai/ha, scale 0 to 100): 0%
- pest or weed control at 31 g/ha ([8]; Amaranthus retroflexus, post-emergence, 31 g ai/ha, read-out: Plant response rating (scale of 0 to 100), Pigweed): 10%
- pest or weed control at 62 g/ha ([8]; Amaranthus retroflexus, post-emergence, 62 g ai/ha, scale 0 to 100 (0 no effect, 100 complete control), read-out: Pigweed plant response rating): 10%
- pest or weed control at 125 g/ha ([8]; Amaranthus retroflexus, post-emergence, 125 g ai/ha, scale 0 to 100 (0 no effect, 100 complete control), read-out: Pigweed plant response rating): 20%
- pest or weed control at 250 g/ha ([8]; Amaranthus retroflexus, post-emergence, 250 g ai/ha, scale 0 to 100, read-out: Plant response rating, Pigweed): 30%
- pest or weed control at 31 g/ha (kochia (Kochia scoparia); Bassia scoparia, post-emergence, 31 g ai/ha, read-out: Plant response rating (scale of 0 to 100), Kochia): 5%
- pest or weed control at 62 g/ha (kochia (Kochia scoparia); Bassia scoparia, post-emergence, 62 g ai/ha, scale 0 to 100 (0 no effect, 100 complete control), read-out: Kochia plant response rating): 30%
- pest or weed control at 125 g/ha (kochia (Kochia scoparia); Bassia scoparia, post-emergence, 125 g ai/ha, scale 0 to 100 (0 no effect, 100 complete control), read-out: Kochia plant response rating): 50%
- pest or weed control at 250 g/ha (kochia (Kochia scoparia); Bassia scoparia, post-emergence, 250 g ai/ha, scale 0 to 100, read-out: Plant response rating, Kochia): 85%

Structure (SMILES): Nc1nc(-c2ccc(Cl)cc2)nc(C(=O)O)c1Br [Compound 88]
- Plant response rating (scale of 0 to 100), Bermudagrass ([1]; 31 g ai/ha): 50
- Bermudagrass plant response rating ([1]; 62 g ai/ha, scale 0 to 100 (0 no effect, 100 complete control)): 70
- Bermudagrass plant response rating [1, 9]: 70
- Plant response rating, Bermudagrass ([1]; 250 g ai/ha, scale 0 to 100): 80
- Plant response rating (scale of 0 to 100), Ragweed ([2]; 31 g ai/ha): 90
- Plant response rating (scale of 0 to 100), Ragweed ([2]; 62 g ai/ha): 100
- Ragweed plant response rating [2, 9]: 100
- Plant response rating, Ragweed ([2]; 250 g ai/ha, scale 0 to 100): 100
- Plant response rating (scale of 0 to 100), Cupgrass, Woolly ([3]; 31 g ai/ha): 70
- Plant response rating (scale of 0 to 100), Cupgrass, Woolly ([3]; 62 g ai/ha): 75
- Cupgrass, Woolly plant response rating [3, 9]: 85
- Plant response rating, Cupgrass, Woolly ([3]; 250 g ai/ha, scale 0 to 100): 85
- Plant response rating (scale of 0 to 100), Johnsongrass ([4]; 31 g ai/ha): 30
- Plant response rating (scale of 0 to 100), Johnsongrass ([4]; 62 g ai/ha): 45
- Johnsongrass plant response rating [4, 9]: 75
- Plant response rating, Johnsongrass ([4]; 250 g ai/ha, scale 0 to 100): 85
- Plant response rating (scale of 0 to 100), Cocklebur ([5]; 31 g ai/ha): 90
- Plant response rating (scale of 0 to 100), Cocklebur ([5]; 62 g ai/ha): 90
- Cocklebur plant response rating [5, 9]: 90
- Plant response rating, Cocklebur ([5]; 250 g ai/ha, scale 0 to 100): 90
- Plant response rating (scale of 0 to 100), Morningglory ([6]; 31 g ai/ha): 60
- Morningglory plant response rating [6, 9]: 85
- Plant response rating, Morningglory ([6]; 250 g ai/ha, scale 0 to 100): 85
- Plant response rating (scale of 0 to 100), Surinam Grass ([7]; 31 g ai/ha): 45
- Plant response rating (scale of 0 to 100), Surinam Grass ([7]; 62 g ai/ha): 60
- Surinam Grass plant response rating [7, 9]: 80
- Plant response rating, Surinam Grass ([7]; 250 g ai/ha, scale 0 to 100): 85
- Plant response rating (scale of 0 to 100), Corn (corn (Zea mays); 31 g ai/ha): 0
- Plant response rating (scale of 0 to 100), Corn (corn (Zea mays); 62 g ai/ha): 0
- Plant response rating, Corn (corn (Zea mays); 250 g ai/ha, scale 0 to 100): 30
- Plant response rating (scale of 0 to 100), Pigweed ([8]; 31 g ai/ha): 95
- Plant response rating (scale of 0 to 100), Pigweed ([8]; 62 g ai/ha): 100
- Pigweed plant response rating [8, 9]: 100
- Plant response rating, Pigweed ([8]; 250 g ai/ha, scale 0 to 100): 100
- Plant response rating (scale of 0 to 100), Kochia (kochia (Kochia scoparia); 31 g ai/ha): 85
- Plant response rating (scale of 0 to 100), Kochia (kochia (Kochia scoparia); 62 g ai/ha): 95
- Kochia plant response rating (kochia (Kochia scoparia); [9]): 95
- Plant response rating, Kochia (kochia (Kochia scoparia); 250 g ai/ha, scale 0 to 100): 95
